Test results: patent publication US10150764B2, “Substituted benzene compounds” (Epizyme, Inc., priority 2013, dated 2018)
Counter-ions that a name gives are not always drawn.

Assays:
[1] = molecular target: wild-type EZH2 (PRC2 enzyme) (Homo sapiens (Human), UniProt Q15910); assay: PRC2 enzyme assay on peptide substrate, wild-type EZH2 (H3K27me0 peptide, 3H-SAM Flashplate); format: biochemical; conditions: wild-type PRC2 4 nM, read-out: WT EZH2 IC50
Description: (§1) Human PRC2 enzymes were purified as 4-component enzyme complexes co-expressed in Spodoptera frugiperda (sf9) cells using a baculovirus expression system. […] The EED subunit contained an N-terminal FLAG tag that was used to purify the entire 4-component complex from sf9 cell lysates.
(§2) The assays were all performed in a buffer consisting of 20 mM bicine (pH=7.6), 0.5 mM DTT, 0.005% BSG and 0.002% Tween20, prepared on the day of use. […] DMSO (1 μL) was added to columns 11, 12, 23, 24, rows A-H for the maximum signal control, and SAH, a known product and inhibitor of PRC2 (1 μL) was added to columns 11, 12, 23, 24, rows I-P for the minimum signal control. A cocktail (40 μL) containing the wild-type PRC2 enzyme and H3K27me0 peptide or any of the Y641 mutant enzymes and H3K27me2 peptide was added by Multidrop Combi (Thermo). The compounds were allowed to incubate with PRC2 for 30 min at 25° C., then a cocktail (10 μL) containing a mixture of non-radioactive and ^3H-SAM was added to initiate the reaction (final volume=51 μL). […] The assays were stopped by the addition of non-radioactive SAM (10 μL) to a final concentration of 600 μM, which dilutes the ^3H-SAM to a level where its incorporation into the peptide substrate is no longer detectable. 50 of the reaction in the 384-well polypropylene plate was then transferred to a 384-well Flashplate and the biotinylated peptides were allowed to bind to the streptavidin surface for at least 1 h before being washed three times with 0.1% Tween20 in a Biotek ELx405 plate washer. The plates were then read in a PerkinElmer TopCount platereader to measure the quantity of ^3H-labeled peptide bound to the Flashplate surface, measured as disintegrations per minute (dpm) or alternatively, referred to as counts per minute (cpm).

[2] = tested on: WSU-DLCL2 cells; assay: Cell proliferation analysis, WSU-DLCL2 (Cell Titer Glo); format: cell-based; conditions: Homo sapiens, WSUDLCL2, 144 h, 6 days incubation, ATP readout
Text: Cell Proliferation Analysis
WSU-DLCL2 suspension cells were purchased from DSMZ (German Collection of Microorganisms and Cell Cultures, Braunschweig, Germany), RPMI/Glutamax Medium, Penicillin-Streptomycin, Heat Inactivated Fetal Bovine Serum were purchased from Life Technologies, Grand Island, N.Y., USA, V-bottom polypropylene 384-well plates were purchased from Greiner Bio-One, Monroe, N.C., USA. Cell culture 384-well white opaque plates were purchased from Perkin Elmer, Waltham, Mass., USA. Cell-Titer Glo® was purchased from Promega Corporation, Madison, Wis., USA. SpectraMax M5 plate reader was purchased from Molecular Devices LLC, Sunnyvale, Calif., USA.
WSU-DLCL2 suspension cells were maintained in growth medium (RPMI 1640 supplemented with 10% v/v heat inactivated fetal bovine serum and cultured at 37° C. under 5% CO2. Under assay conditions, cells were incubated in Assay Medium (RPMI 1640 supplemented with 20% v/v heat inactivated fetal bovine serum and 100 units/mL penicillin-streptomycin) at 37° C. under 5% CO2.
For the assessment of the effect of compounds on the proliferation of the WSU-DLCL2 cell line, exponentially growing cells were plated in 384-well white opaque plates at a density of 1250 cell/ml in a final volume of 50 μl of assay medium. A compound source plate was prepared by performing triplicate nine-point 3-fold serial dilutions in DMSO, beginning at 10 mM (final top concentration of compound in the assay was 20 μM and the DMSO was 0.2%). A 100 nL aliquot from the compound stock plate was added to its respective well in the cell plate. […] After addition of compounds, assay plates were incubated for 6 days at 37° C., 5% CO2, relative humidity >90% for 6 days. Cell viability was measured by quantization of ATP present in the cell cultures, adding 35 μl of Cell Titer Glo® reagent to the cell plates. Luminescence was read in the SpectraMax M5. The concentration inhibiting cell viability by 50% was determined using a 4-parametric fit of the normalized dose response curves.

[3] = molecular target: EZH2 Y641F mutant (PRC2 enzyme) (Homo sapiens (Human), UniProt Q15910, Y641F); assay: PRC2 enzyme assay on peptide substrate, EZH2 Y641F mutant (H3K27me2 peptide, 3H-SAM Flashplate); format: biochemical; conditions: Y641F mutant PRC2 4 nM
Description: as §1, §2

[4] = tested on: H3K27me3 in WSU-DLCL2 cells; assay: WSU-DLCL2 methylation assay (H3K27me3 ELISA); format: cell-based, human; conditions: Homo sapiens, WSUDLCL2, 96 hours incubation, H3K27me3 normalised to total H3
Text: WSU-DLCL2 Methylation Assay
WSU-DLCL2 suspension cells were purchased from DSMZ (German Collection of Microorganisms and Cell Cultures, Braunschweig, Germany). RPMI/Glutamax Medium, Penicillin-Streptomycin, Heat Inactivated Fetal Bovine Serum, and D-PBS were purchased from Life Technologies, Grand Island, N.Y., USA. Extraction Buffer and Neutralization Buffer (5×) were purchased from Active Motif, Carlsbad, Calif., USA. Rabbit anti-Histone H3 antibody was purchased from Abcam, Cambridge, Mass., USA. Rabbit anti-H3K27me3 and HRP-conjugated anti-rabbit-IgG were purchased from Cell Signaling Technology, Danvers, Mass., USA. TMB “Super Sensitive” substrate was sourced from BioFX Laboratories, Owings Mills, Md., USA. IgG-free Bovine Serum Albumin was purchased from Jackson ImmunoResearch, West Grove, Pa., USA. PBS with Tween (10×PBST) was purchased from KPL, Gaithersburg, Md., USA. Sulfuric Acid was purchased from Ricca Chemical, Arlington, Tex., USA. Immulon ELISA plates were purchased from Thermo, Rochester, N.Y., USA. V-bottom cell culture plates were purchased from Corning Inc., Corning, N.Y., USA. V-bottom polypropylene plates were purchased from Greiner Bio-One, Monroe, N.C., USA.
WSU-DLCL2 suspension cells were maintained in growth medium (RPMI 1640 supplemented with 10% v/v heat inactivated fetal bovine serum and 100 units/mL penicillin-streptomycin) and cultured at 37° C. under 5% CO2. Under assay conditions, cells were incubated in Assay Medium (RPMI 1640 supplemented with 20% v/v heat inactivated fetal bovine serum and 100 units/mL penicillin-streptomycin) at 37° C. under 5% CO2 on a plate shaker.
WSU-DLCL2 cells were seeded in assay medium at a concentration of 50,000 cells per mL to a 96-well V-bottom cell culture plate with 200 μL per well. […] Plates were incubated on a titer-plate shaker at 37° C., 5% CO2 for 96 hours. After four days of incubation, plates were spun at 241×g for five minutes and medium was aspirated gently from each well of cell plate without disturbing cell pellet. Pellet was resuspended in: 200 μL DPBS and plates were spun again at 241×g for five minutes. The supernatant was aspirated and cold (4° C.) Extraction buffer (100 μL) was added per well. Plates were incubated at 4° C. on orbital shaker for two hours. Plates were spun at 3427×g×10 minutes. Supernatant (80 μL per well) was transferred to its respective well in 96 well V-bottom polypropylene plate. Neutralization Buffer 5× (20 μL per well) was added to V-bottom polypropylene plate containing supernatant. V-bottom polypropylene plates containing crude histone preparation (CHP) were incubated on orbital shaker×five minutes. Crude Histone Preparations were added (2 μL per well) to each respective well into duplicate 96 well ELISA plates containing 100 μL Coating Buffer (1×PBS+BSA 0.05% w/v). Plates were sealed and incubated overnight at 4° C. The following day, plates were washed three times with 300 μL per well 1×PBST. […] For H3K27me3 detection, 100 μL of HRP conjugated anti-rabbit IgG antibody diluted to 1:4000 in ELISA diluent was added per well. Plates were incubated at room temperature for 90 minutes. […] TMB substrate 100 μL was added per well. Histone H3 plates were incubated for five minutes at room temperature. H3K27me3 plates were incubated for 10 minutes at room temperature. The reaction was stopped with sulfuric acid 1N (100 μL per well). Absorbance for each plate was read at 450 nm.
Each plate included eight control wells DMSO only treatment (Minimum Inhibition) as well as eight control wells for maximum inhibition (Background wells).
The average of the ratio values for each control type was calculated and used to determine the percent inhibition for each test well in the plate. Test compound was serially diluted three-fold in DMSO for a total of ten test concentrations, beginning at 25 μM.

Sequence of wild-type EZH2 (PRC2 enzyme) (Q15910 whole entry): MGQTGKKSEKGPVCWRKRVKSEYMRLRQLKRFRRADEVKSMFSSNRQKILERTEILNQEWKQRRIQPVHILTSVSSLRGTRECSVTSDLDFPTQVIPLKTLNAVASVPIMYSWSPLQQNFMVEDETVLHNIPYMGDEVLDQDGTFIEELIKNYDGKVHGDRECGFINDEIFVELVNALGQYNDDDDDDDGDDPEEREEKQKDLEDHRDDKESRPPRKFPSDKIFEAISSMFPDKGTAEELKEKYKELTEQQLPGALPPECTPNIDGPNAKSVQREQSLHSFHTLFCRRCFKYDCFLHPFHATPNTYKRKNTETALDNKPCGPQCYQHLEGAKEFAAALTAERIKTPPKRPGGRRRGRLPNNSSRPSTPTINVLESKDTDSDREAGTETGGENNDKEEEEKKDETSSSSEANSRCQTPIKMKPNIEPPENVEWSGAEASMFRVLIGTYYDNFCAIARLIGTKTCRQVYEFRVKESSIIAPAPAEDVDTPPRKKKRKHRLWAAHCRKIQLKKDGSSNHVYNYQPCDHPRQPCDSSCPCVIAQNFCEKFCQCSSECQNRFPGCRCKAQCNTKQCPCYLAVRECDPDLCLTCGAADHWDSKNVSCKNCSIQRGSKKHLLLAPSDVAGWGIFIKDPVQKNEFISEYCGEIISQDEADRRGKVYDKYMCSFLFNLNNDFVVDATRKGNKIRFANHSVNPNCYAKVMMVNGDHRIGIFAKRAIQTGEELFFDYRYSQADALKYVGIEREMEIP
Sequence of wild-type EZH2 (PRC2 enzyme) (O75530 whole entry partner): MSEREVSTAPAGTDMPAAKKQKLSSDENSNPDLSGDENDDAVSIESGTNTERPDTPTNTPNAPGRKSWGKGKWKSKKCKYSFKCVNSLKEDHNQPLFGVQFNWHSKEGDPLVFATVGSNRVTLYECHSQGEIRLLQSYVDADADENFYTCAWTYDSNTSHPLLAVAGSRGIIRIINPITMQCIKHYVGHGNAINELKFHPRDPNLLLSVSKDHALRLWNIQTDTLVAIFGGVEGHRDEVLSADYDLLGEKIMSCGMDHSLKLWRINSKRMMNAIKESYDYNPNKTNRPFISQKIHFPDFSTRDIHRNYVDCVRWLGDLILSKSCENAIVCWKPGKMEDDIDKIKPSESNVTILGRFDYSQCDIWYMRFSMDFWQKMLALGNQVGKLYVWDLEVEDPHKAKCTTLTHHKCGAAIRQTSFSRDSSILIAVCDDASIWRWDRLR
Sequence of wild-type EZH2 (PRC2 enzyme) (Q15022 whole entry partner): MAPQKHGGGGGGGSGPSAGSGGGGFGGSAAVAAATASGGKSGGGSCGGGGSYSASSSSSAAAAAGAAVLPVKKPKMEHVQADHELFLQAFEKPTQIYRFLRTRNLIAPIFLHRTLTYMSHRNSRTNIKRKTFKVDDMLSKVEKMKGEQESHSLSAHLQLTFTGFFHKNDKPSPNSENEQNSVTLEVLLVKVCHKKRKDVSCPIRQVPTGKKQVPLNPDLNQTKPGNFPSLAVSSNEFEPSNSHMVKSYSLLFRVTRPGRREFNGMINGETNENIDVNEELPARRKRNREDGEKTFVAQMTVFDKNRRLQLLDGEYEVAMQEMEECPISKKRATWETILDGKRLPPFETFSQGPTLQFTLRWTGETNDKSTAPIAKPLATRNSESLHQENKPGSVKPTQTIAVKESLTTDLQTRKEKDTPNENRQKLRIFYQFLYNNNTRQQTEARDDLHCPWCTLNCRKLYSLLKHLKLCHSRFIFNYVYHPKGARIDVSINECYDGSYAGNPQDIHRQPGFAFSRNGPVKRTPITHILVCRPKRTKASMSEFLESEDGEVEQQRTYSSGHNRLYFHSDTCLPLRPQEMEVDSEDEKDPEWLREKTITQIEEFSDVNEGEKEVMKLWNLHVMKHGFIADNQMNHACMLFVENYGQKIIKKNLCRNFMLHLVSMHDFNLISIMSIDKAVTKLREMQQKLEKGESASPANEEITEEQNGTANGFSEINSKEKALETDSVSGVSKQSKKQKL
Sequence of wild-type EZH2 (PRC2 enzyme) (Q09028 whole entry partner): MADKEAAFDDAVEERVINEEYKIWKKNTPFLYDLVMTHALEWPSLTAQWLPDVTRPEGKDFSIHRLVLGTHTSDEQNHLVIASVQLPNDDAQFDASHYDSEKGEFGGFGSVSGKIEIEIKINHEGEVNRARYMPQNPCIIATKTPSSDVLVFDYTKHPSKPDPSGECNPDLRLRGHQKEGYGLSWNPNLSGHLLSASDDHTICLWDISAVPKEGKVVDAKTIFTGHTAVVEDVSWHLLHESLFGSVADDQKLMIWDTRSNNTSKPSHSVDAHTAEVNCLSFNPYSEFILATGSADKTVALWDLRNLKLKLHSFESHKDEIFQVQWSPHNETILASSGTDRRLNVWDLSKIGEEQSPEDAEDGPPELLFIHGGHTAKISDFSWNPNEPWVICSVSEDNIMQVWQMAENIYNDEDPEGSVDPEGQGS
Sequence of EZH2 Y641F mutant (PRC2 enzyme) (Q15910 whole entry Y641F): as the sequence (Q15910 whole entry) above, with Y641F counted along it
Sequence of EZH2 Y641F mutant (PRC2 enzyme) (O75530 whole entry partner): as the sequence (O75530 whole entry partner) above
Sequence of EZH2 Y641F mutant (PRC2 enzyme) (Q15022 whole entry partner): as the sequence (Q15022 whole entry partner) above
Sequence of EZH2 Y641F mutant (PRC2 enzyme) (Q09028 whole entry partner): as the sequence (Q09028 whole entry partner) above

SMILES | IC50 [1] [nM] | IC50 [2] [nM] | IC50 [3] [nM] | IC50 [4] [nM]
CCN(c1cc(Cl)cc(C(=O)NCc2c(C)[nH]n(C)c2=O)c1C)[C@@H]1COC[C@H]1OC (relative stereo) [Compound 42, 5-chloro-N-((2,5-dimethyl-3-oxo-2,3-dihydro-1H-pyrazol-4-yl)methyl)-3-(ethyl((trans)-4-methoxytetrahydrofuran-3-yl)amino)-2-methylbenzamide] | > 50000 | > 20000 |  | 
CCN(c1cc(Cl)cc(C(=O)NCc2c(CCN(C)C)cc3n(c2=O)NCC3)c1C)[C@H]1CC[C@H](N(C)C)CC1 [Compound 1, 5-chloro-3-(((trans)-4-(dimethylamino)cyclohexyl)(ethyl)amino)-N-((5-(2-(dimethylamino)ethyl)-7-oxo-1,2,3,7-tetrahydropyrazolo[1,5-a]pyridin-6-yl)methyl)-2-methylbenzamide] |  | 850 |  | 
CCN(c1cc(Cl)cc(C(=O)NCc2c(C)[nH][nH]c2=O)c1C)[C@H]1CC[C@H](N(C)C)CC1 [Compound 32, 5-chloro-3-(ethyl((trans)-4-(dimethylamino)cyclohexyl)amino)-2-methyl-N-((5-methyl-3-oxo-2,3-dihydro-1H-pyrazol-4-yl)methyl]benzamide Formate] | 68 | 11500 | 15 | 15400
CCN(c1cc(Cl)cc(C(=O)NCc2c(C)[nH]n(C)c2=O)c1C)[C@H]1CC[C@H](N(C)C)CC1 [Compound 34, 5-chloro-N-((2,5-dimethyl-3-oxo-2,3-dihydro-1H-pyrazol-4-yl)methyl)-3-(((trans)-4-(dimethylamino)cyclohexyl)(ethyl)amino)-2-methylbenzamide] | 223 | 6920 | 110 | 18600
CCN(c1cc(-c2ccc(OCCOC)cc2)cc(C(=O)NCc2c(C)[nH]n(C)c2=O)c1C)[C@H]1CC[C@H](N(C)C)CC1 [Compound 35, N-((2,5-dimethyl-3-oxo-2,3-dihydro-1H-pyrazol-4-yl)methyl)-5-(((trans)-4-(dimethylamino)cyclohexyl)(ethyl)amino)-4′-(2-methoxyethoxy)-4-methyl-[1,1′-biphenyl]-3-carboxamide] | 267 | > 20000 | 63 | 17900
CCn1[nH]c(C)c(CNC(=O)c2cc(Cl)cc(N(CC)[C@H]3CC[C@H](N(C)C)CC3)c2C)c1=O [Compound 36, 5-chloro-3-(((trans)-4-(dimethylamino)cyclohexyl)(ethyl)amino)-N-((2-ethyl-5-methyl-3-oxo-2,3-dihydro-1H-pyrazol-4-yl)methyl)-2-methylbenzamide] | 829 | > 20000 | 114 | 7970
CCc1[nH]n(C)c(=O)c1CNC(=O)c1cc(Cl)cc(N(CC)[C@H]2CC[C@H](N(C)C)CC2)c1C [Compound 38, 5-chloro-3-(((trans)-4-(dimethylamino)cyclohexyl)(ethyl)amino)-N-((5-ethyl-2-methyl-3-oxo-2,3-dihydro-1H-pyrazol-4-yl)methyl)-2-methylbenzamide] | 3370 | > 20000 | 265 | 18100
CCN(c1cc(Cl)cc(C(=O)NCc2c(=O)[nH]n3cccnc23)c1C)[C@H]1CC[C@H](N(C)C)CC1 [Compound 51, 5-chloro-3-(((trans)-4-(dimethylamino)cyclohexyl)(ethyl)amino)-2-methyl-N-((2-oxo-1,2-dihydropyrazolo-[1,5-a]-pyrimidin-3-yl)methyl)benzamide] | 2870 | > 20000 | 573 | 
CCn1[nH]c(=O)c(CNC(=O)c2cc(Cl)cc(N(CC)[C@H]3CC[C@H](N(C)C)CC3)c2C)c1C [Compound 52, 5-chloro-3-(((trans)-4-(dimethylamino)cyclohexyl)(ethyl)amino)-N-((1-ethyl-5-methyl-3-oxo-2,3-dihydro-1H-pyrazol-4-yl)methyl)-2-methylbenzamide] | 367 | 7340 | 30 | 3040
CCN(c1cc(Cl)cc(C(=O)NCc2c(C)n(C)[nH]c2=O)c1C)[C@H]1CC[C@H](N(C)CCOC)CC1 [Compound 55, 5-chloro-N-((1,5-dimethyl-3-oxo-2,3-dihydro-1H-pyrazol-4-yl)methyl)-3-(ethyl((trans)-4-((2-methoxyethyl)(methyl)amino)cyclohexyl)amino)-2-methylbenzamide] | 695 |  | 418 | 30600
CCCN(c1cc(-c2ccc(OCCOC)cc2)cc(C(=O)NCc2c(C)n(C)[nH]c2=O)c1C)[C@H]1CC[C@H](N(C)C)CC1 [Compound 58, N-((1,5-dimethyl-3-oxo-2,3-dihydro-1H-pyrazol-4-yl)methyl)-5-(((trans)-4-(dimethylamino)cyclohexyl)(propyl)amino)-4′-(2-methoxyethoxy)-4-methyl-[1,1′-biphenyl]-3-carboxamide] | 1540 | 14300 | 342 | 
CCN(c1cc(-c2ccc(OCCOC)cc2)cc(C(=O)NCc2c(C)n(C)[nH]c2=O)c1C)[C@H]1CC[C@H](N(C)C)CC1 [Compound 59, N-((1,5-dimethyl-3-oxo-2,3-dihydro-1H-pyrazol-4-yl)methyl)-5-(((trans)-4-(dimethylamino)cyclohexyl)(ethyl)amino)-4′-(2-methoxyethoxy)-4-methyl-[1,1′-biphenyl]-3-carboxamide] |  | > 20000 |  | > 50000
CCN(c1cc(-c2ccc(OCCOC)cc2)cc(C(=O)NCc2c(C)n(C)[nH]c2=O)c1C)[C@H]1CC[C@H](N(C)CCOC)CC1 [Compound 60, N-((1,5-dimethyl-3-oxo-2,3-dihydro-1H-pyrazol-4-yl)methyl)-5-(ethyl((trans)-4-((2-methoxyethyl)(methyl)amino)cyclohexyl)amino)-4′-(2-methoxyethoxy)-4-methyl-[1,1′-biphenyl]-3-carboxamide] | 2110 | 13500 | 695 | 
CCn1nc(OC)c(CNC(=O)c2cc(Cl)cc(N(CC)[C@H]3CC[C@H](N(C)Cc4cccc(OC)c4)CC3)c2C)c1C [Compound 62, 5-chloro-3-(ethyl((trans)-4-((3-methoxybenzyl)-(methyl)-amino)-cyclohexyl)-amino)-N-((1-ethyl-3-methoxy-5-methyl-1H-pyrazol-4-yl)methyl)-2-methylbenzamide] | 745 |  | 193 | > 50000
CCN(c1cc(Cl)cc(C(=O)NCc2c(C)nn(C)c2OC)c1C)[C@H]1CC[C@H](N(C)C)CC1 [Compound 91, 5-chloro-N-((5-methoxy-1,3-dimethyl-1H-pyrazol-4-yl)methyl)-3-(((trans)-4-(dimethylamino)cyclohexyl)(ethyl)amino)-2-methylbenzamide] | 7450 |  | 1170 | > 50000
CCN(c1cc(Cl)cc(C(=O)NCc2c(N3CCCCC3)n(C)[nH]c2=O)c1C)[C@H]1CC[C@H](N(C)C)CC1 [Compound 93, 5-chloro-3-(ethyl[(trans)-4-(dimethylamino)cyclohexyl]amino)-2-methyl-N-([1-methyl-3-oxo-5-(piperidin-1-yl)-2,3-dihydro-1H-pyrazol-4-yl]methyl)benzamide] | 9.71 |  | 14.4 | 3550
